Legend:
[1] = application during open heart surgery, clinical studies; cited from earlier work
human trypsin = assay: Trypsin inhibition assay; format: biochemical; conditions: substrate benzoyl-L-arginine p-nitroanilide; product expressed in yeast
Description: The trypsin activity was determined using the method of geiger & Fritz, Methods of Enzymatic Analysis, Vol. V, 3rd ed., Bergmeyer (ed.), Verlag Chemie, Weinheim (1984), p. 121 with benzoyl-L-arginine p-nitroanilide as substrate. The liberated p-nitroaniline was measured in a spectrophotometer at 405 nm. Enzyme and inhibitor were preincubated for 15 min before addition of the substrate.

Row | Substance | blood loss [1] | trypsin inhibition (biological activity) (human trypsin)
1 | aprotinin | reduces blood loss significantly | –
2 | α3(VI) inhibitor: Kunitz type proteinase inhibitor, aminoacid pos. 2873 to 2931 of the C5 domain of human type VI collagen α3 chain, expressed in yeast (pKol 100) | – | inhibits human trypsin

Reference: patent publication US5278285A, “Variant of Kunitz-type inhibitor derived from the α3-chain of human type VI collagen produced by recombinant DNA technology” (Bayer Aktiengesellschaft, priority 1990, dated 1994)
